In ChEMBL document CHEMBL3046358, “Multiple Pro-197 substitutions in the acetolactate synthase of rigid ryegrass (Lolium rigidum) and their impact on chlorsulfuron activity and plant growth” (Crop Prot, 2012):

What was measured:
Format in all cases: functional
Lolium rigidum [1] = assay: Herbicidal activity against Lolium rigidum accession A02 assessed as emergence rate applied at recommended rate incorporated into the soil prior weed seedlings relative to untreated control
Lolium rigidum [2] = assay: Herbicidal activity against Lolium rigidum accession A03 assessed as emergence rate applied at recommended rate incorporated into the soil prior weed seedlings relative to untreated control
Lolium rigidum [3] = assay: Herbicidal activity against Lolium rigidum accession A12 assessed as fresh weight reduction applied at recommended rate incorporated into the soil prior weed seedlings relative to untreated control; design: scale not given: the % may be the effect or the level left
Lolium rigidum [4] = assay: Herbicidal activity against Lolium rigidum accession A14 assessed as fresh weight reduction applied at recommended rate incorporated into the soil prior weed seedlings relative to untreated control; design: scale not given: the % may be the effect or the level left
Lolium rigidum [5] = assay: Herbicidal activity against Lolium rigidum accession A07 assessed as fresh weight reduction applied at recommended rate incorporated into the soil prior weed seedlings relative to untreated control; design: scale not given: the % may be the effect or the level left
Lolium rigidum [6] = assay: Herbicidal activity against Lolium rigidum accession A09 assessed as fresh weight reduction applied at recommended rate incorporated into the soil prior weed seedlings relative to untreated control; design: scale not given: the % may be the effect or the level left
Lolium rigidum [7] = assay: Herbicidal activity against Lolium rigidum accession A10 assessed as fresh weight reduction applied at recommended rate incorporated into the soil prior weed seedlings relative to untreated control; design: scale not given: the % may be the effect or the level left
Lolium rigidum [8] = assay: Herbicidal activity against Lolium rigidum accession A09 assessed as emergence rate applied at recommended rate incorporated into the soil prior weed seedlings relative to untreated control
Lolium rigidum [9] = assay: Herbicidal activity against Lolium rigidum accession A01 assessed as emergence rate applied at recommended rate incorporated into the soil prior weed seedlings relative to untreated control
Lolium rigidum [10] = assay: Herbicidal activity against Lolium rigidum accession A07 assessed as emergence rate applied at recommended rate incorporated into the soil prior weed seedlings relative to untreated control
Lolium rigidum [11] = assay: Herbicidal activity against Lolium rigidum accession A13 assessed as emergence rate applied at recommended rate incorporated into the soil prior weed seedlings relative to untreated control
Lolium rigidum [12] = assay: Herbicidal activity against Lolium rigidum accession A11 assessed as fresh weight reduction applied at recommended rate incorporated into the soil prior weed seedlings relative to untreated control; design: scale not given: the % may be the effect or the level left
Lolium rigidum [13] = assay: Herbicidal activity against Lolium rigidum accession A05 assessed as emergence rate applied at recommended rate incorporated into the soil prior weed seedlings relative to untreated control
Lolium rigidum [14] = assay: Herbicidal activity against Lolium rigidum accession A08 assessed as emergence rate applied at recommended rate incorporated into the soil prior weed seedlings relative to untreated control
Lolium rigidum [15] = assay: Herbicidal activity against Lolium rigidum accession A15 assessed as fresh weight reduction applied at recommended rate incorporated into the soil prior weed seedlings relative to untreated control; design: scale not given: the % may be the effect or the level left
Lolium rigidum [16] = assay: Herbicidal activity against Lolium rigidum accession A02 assessed as fresh weight reduction applied at recommended rate incorporated into the soil prior weed seedlings relative to untreated control; design: scale not given: the % may be the effect or the level left
Lolium rigidum [17] = assay: Herbicidal activity against Lolium rigidum accession A04 assessed as fresh weight reduction applied at recommended rate incorporated into the soil prior weed seedlings relative to untreated control; design: scale not given: the % may be the effect or the level left
Lolium rigidum [18] = assay: Herbicidal activity against Lolium rigidum accession A01 assessed as fresh weight reduction applied at recommended rate incorporated into the soil prior weed seedlings relative to untreated control; design: scale not given: the % may be the effect or the level left
Lolium rigidum [19] = assay: Herbicidal activity against Lolium rigidum accession A15 assessed as emergence rate applied at recommended rate incorporated into the soil prior weed seedlings relative to untreated control
Lolium rigidum [20] = assay: Herbicidal activity against Lolium rigidum accession A12 assessed as emergence rate applied at recommended rate incorporated into the soil prior weed seedlings relative to untreated control
Lolium rigidum [21] = assay: Herbicidal activity against Lolium rigidum accession A06 assessed as emergence rate applied at recommended rate incorporated into the soil prior weed seedlings relative to untreated control
Lolium rigidum [22] = assay: Herbicidal activity against Lolium rigidum accession A08 assessed as fresh weight reduction applied at recommended rate incorporated into the soil prior weed seedlings relative to untreated control; design: scale not given: the % may be the effect or the level left
Lolium rigidum [23] = assay: Herbicidal activity against Lolium rigidum accession A13 assessed as fresh weight reduction applied at recommended rate incorporated into the soil prior weed seedlings relative to untreated control; design: scale not given: the % may be the effect or the level left
Lolium rigidum [24] = assay: Herbicidal activity against Lolium rigidum accession A05 assessed as fresh weight reduction applied at recommended rate incorporated into the soil prior weed seedlings relative to untreated control; design: scale not given: the % may be the effect or the level left
Lolium rigidum [25] = assay: Herbicidal activity against Lolium rigidum accession A04 assessed as emergence rate applied at recommended rate incorporated into the soil prior weed seedlings relative to untreated control
Lolium rigidum [26] = assay: Herbicidal activity against Lolium rigidum accession A06 assessed as fresh weight reduction applied at recommended rate incorporated into the soil prior weed seedlings relative to untreated control; design: scale not given: the % may be the effect or the level left
Lolium rigidum [27] = assay: Herbicidal activity against Lolium rigidum accession A11 assessed as emergence rate applied at recommended rate incorporated into the soil prior weed seedlings relative to untreated control
Lolium rigidum [28] = assay: Herbicidal activity against Lolium rigidum accession A14 assessed as emergence rate applied at recommended rate incorporated into the soil prior weed seedlings relative to untreated control
Lolium rigidum [29] = assay: Herbicidal activity against Lolium rigidum accession A10 assessed as emergence rate applied at recommended rate incorporated into the soil prior weed seedlings relative to untreated control
Lolium rigidum [30] = assay: Herbicidal activity against Lolium rigidum accession A03 assessed as fresh weight reduction applied at recommended rate incorporated into the soil prior weed seedlings relative to untreated control; design: scale not given: the % may be the effect or the level left
Lolium rigidum [31] = assay: Herbicidal activity against Lolium rigidum accession A12 assessed as emergence rate applied at 1 times pre-emergence recommended rate relative to untreated control
Lolium rigidum [32] = assay: Herbicidal activity against Lolium rigidum accession A12 assessed as fresh weight reduction applied at 1 times pre-emergence recommended rate relative to untreated control; design: scale not given: the % may be the effect or the level left
Lolium rigidum [33] = assay: Herbicidal activity against Lolium rigidum accession A13 assessed as fresh weight reduction applied at 1 times pre-emergence recommended rate relative to untreated control; design: scale not given: the % may be the effect or the level left
Lolium rigidum [34] = assay: Herbicidal activity against Lolium rigidum accession A03 assessed as emergence rate applied at 1 times pre-emergence recommended rate relative to untreated control
Lolium rigidum [35] = assay: Herbicidal activity against Lolium rigidum accession A09 assessed as emergence rate applied at 1 times pre-emergence recommended rate relative to untreated control
Lolium rigidum [36] = assay: Herbicidal activity against Lolium rigidum accession A14 assessed as emergence rate applied at 1 times pre-emergence recommended rate relative to untreated control
Lolium rigidum [37] = assay: Herbicidal activity against Lolium rigidum accession A01 assessed as fresh weight reduction applied at 1 times pre-emergence recommended rate relative to untreated control; design: scale not given: the % may be the effect or the level left
Lolium rigidum [38] = assay: Herbicidal activity against Lolium rigidum accession A10 assessed as emergence rate applied at 1 times pre-emergence recommended rate relative to untreated control
Lolium rigidum [39] = assay: Herbicidal activity against Lolium rigidum accession A01 assessed as emergence rate applied at 1 times pre-emergence recommended rate relative to untreated control
Lolium rigidum [40] = assay: Herbicidal activity against Lolium rigidum accession A08 assessed as fresh weight reduction applied at 1 times pre-emergence recommended rate relative to untreated control; design: scale not given: the % may be the effect or the level left
Lolium rigidum [41] = assay: Herbicidal activity against Lolium rigidum accession A13 assessed as emergence rate applied at 1 times pre-emergence recommended rate relative to untreated control
Lolium rigidum [42] = assay: Herbicidal activity against Lolium rigidum accession A06 assessed as fresh weight reduction applied at 1 times pre-emergence recommended rate relative to untreated control; design: scale not given: the % may be the effect or the level left
Lolium rigidum [43] = assay: Herbicidal activity against Lolium rigidum accession A04 assessed as fresh weight reduction applied at 1 times pre-emergence recommended rate relative to untreated control; design: scale not given: the % may be the effect or the level left
Lolium rigidum [44] = assay: Herbicidal activity against Lolium rigidum accession A11 assessed as fresh weight reduction applied at 1 times pre-emergence recommended rate relative to untreated control; design: scale not given: the % may be the effect or the level left
Lolium rigidum [45] = assay: Herbicidal activity against Lolium rigidum accession A15 assessed as fresh weight reduction applied at 1 times pre-emergence recommended rate relative to untreated control; design: scale not given: the % may be the effect or the level left
Lolium rigidum [46] = assay: Herbicidal activity against Lolium rigidum accession A06 assessed as emergence rate applied at 1 times pre-emergence recommended rate relative to untreated control
Lolium rigidum [47] = assay: Herbicidal activity against Lolium rigidum accession A04 assessed as emergence rate applied at 1 times pre-emergence recommended rate relative to untreated control
Lolium rigidum [48] = assay: Herbicidal activity against Lolium rigidum accession A10 assessed as fresh weight reduction applied at 1 times pre-emergence recommended rate relative to untreated control; design: scale not given: the % may be the effect or the level left
Lolium rigidum [49] = assay: Herbicidal activity against Lolium rigidum accession A09 assessed as fresh weight reduction applied at 1 times pre-emergence recommended rate relative to untreated control; design: scale not given: the % may be the effect or the level left
Lolium rigidum [50] = assay: Herbicidal activity against Lolium rigidum accession A05 assessed as fresh weight reduction applied at 1 times pre-emergence recommended rate relative to untreated control; design: scale not given: the % may be the effect or the level left
Lolium rigidum [51] = assay: Herbicidal activity against Lolium rigidum accession A03 assessed as fresh weight reduction applied at 1 times pre-emergence recommended rate relative to untreated control; design: scale not given: the % may be the effect or the level left
Lolium rigidum [52] = assay: Herbicidal activity against Lolium rigidum accession A02 assessed as emergence rate applied at 1 times pre-emergence recommended rate relative to untreated control
Lolium rigidum [53] = assay: Herbicidal activity against Lolium rigidum accession A07 assessed as fresh weight reduction applied at 1 times pre-emergence recommended rate relative to untreated control; design: scale not given: the % may be the effect or the level left
Lolium rigidum [54] = assay: Herbicidal activity against Lolium rigidum accession A05 assessed as emergence rate applied at 1 times pre-emergence recommended rate relative to untreated control
Lolium rigidum [55] = assay: Herbicidal activity against Lolium rigidum accession A11 assessed as emergence rate applied at 1 times pre-emergence recommended rate relative to untreated control
Lolium rigidum [56] = assay: Herbicidal activity against Lolium rigidum accession A07 assessed as emergence rate applied at 1 times pre-emergence recommended rate relative to untreated control
Lolium rigidum [57] = assay: Herbicidal activity against Lolium rigidum accession A08 assessed as emergence rate applied at 1 times pre-emergence recommended rate relative to untreated control
Lolium rigidum [58] = assay: Herbicidal activity against Lolium rigidum accession A15 assessed as emergence rate applied at 1 times pre-emergence recommended rate relative to untreated control
Lolium rigidum [59] = assay: Herbicidal activity against Lolium rigidum accession A14 assessed as fresh weight reduction applied at 1 times pre-emergence recommended rate relative to untreated control; design: scale not given: the % may be the effect or the level left
Lolium rigidum [60] = assay: Herbicidal activity against Lolium rigidum accession A02 assessed as fresh weight reduction applied at 1 times pre-emergence recommended rate relative to untreated control; design: scale not given: the % may be the effect or the level left

SMILES: CCOP(=S)(OCC)SCSC(C)(C)C [TERBUFOS]
- Activity (Lolium rigidum [1]): 97%
- Activity (Lolium rigidum [2]): 98%
- Activity (Lolium rigidum [3]): 2%
- Activity (Lolium rigidum [4]): 1%
- Activity (Lolium rigidum [5]): 0%
- Activity (Lolium rigidum [6]): 0%
- Activity (Lolium rigidum [7]): 0%
- Activity (Lolium rigidum [8]): 99%
- Activity (Lolium rigidum [9]): 99%
- Activity (Lolium rigidum [10]): 93%
- Activity (Lolium rigidum [11]): 100%
- Activity (Lolium rigidum [12]): 0%
- Activity (Lolium rigidum [13]): 95%
- Activity (Lolium rigidum [14]): 100%
- Activity (Lolium rigidum [15]): 0%
- Activity (Lolium rigidum [16]): 0%
- Activity (Lolium rigidum [17]): 0%
- Activity (Lolium rigidum [18]): 0%
- Activity (Lolium rigidum [19]): 99%
- Activity (Lolium rigidum [20]): 93%
- Activity (Lolium rigidum [21]): 97%
- Activity (Lolium rigidum [22]): 0%
- Activity (Lolium rigidum [23]): 0%
- Activity (Lolium rigidum [24]): 1%
- Activity (Lolium rigidum [25]): 100%
- Activity (Lolium rigidum [26]): 0%
- Activity (Lolium rigidum [27]): 98%
- Activity (Lolium rigidum [28]): 94%
- Activity (Lolium rigidum [29]): 95%
- Activity (Lolium rigidum [30]): 0%

SMILES: CCCN(CCC)C(=O)SCc1ccccc1 [PROSULFOCARB]
- Activity (Lolium rigidum [31]): 0%
- Activity (Lolium rigidum [32]): 100%
- Activity (Lolium rigidum [33]): 100%
- Activity (Lolium rigidum [34]): 0%
- Activity (Lolium rigidum [35]): 0%
- Activity (Lolium rigidum [36]): 0%
- Activity (Lolium rigidum [37]): 100%
- Activity (Lolium rigidum [38]): 0%
- Activity (Lolium rigidum [39]): 0%
- Activity (Lolium rigidum [40]): 100%
- Activity (Lolium rigidum [41]): 0%
- Activity (Lolium rigidum [42]): 100%
- Activity (Lolium rigidum [43]): 98%
- Activity (Lolium rigidum [44]): 99%
- Activity (Lolium rigidum [45]): 100%
- Activity (Lolium rigidum [46]): 0%
- Activity (Lolium rigidum [47]): 1%
- Activity (Lolium rigidum [48]): 100%
- Activity (Lolium rigidum [49]): 100%
- Activity (Lolium rigidum [50]): 100%
- Activity (Lolium rigidum [51]): 100%
- Activity (Lolium rigidum [52]): 0%
- Activity (Lolium rigidum [53]): 100%
- Activity (Lolium rigidum [54]): 0%
- Activity (Lolium rigidum [55]): 1%
- Activity (Lolium rigidum [56]): 0%
- Activity (Lolium rigidum [57]): 0%
- Activity (Lolium rigidum [58]): 0%
- Activity (Lolium rigidum [59]): 100%
- Activity (Lolium rigidum [60]): 100%
